± gives the standard deviation.
Test: chemical recovery from spiked human plasma; higher = better extraction
Conditions: pooled human plasma; extraction method: PES+SPE (3 d PDMS equilibration then HLB SPE)
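Further: plasma spiked with over 400 chemicals, quantified by LC-HRMS and GC-HRMS via internal standard calibration against matrix-matched unspiked plasma extracts plus spike mix.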

Compared with `CNC(=O)c1cc(Cl)cc(C)c1NC(=O)c1cc(Br)nn1-c1ncccc1Cl` [Chlorantraniliprole], `CC(=O)Nc1c(C)n(C)n(-c2ccccc2)c1=O` [N-Acetyl-4-aminoantipyrine] is lower in chemical recovery: 66.7 ± 5.2% for the first, 44.5 ± 5.9% for the second.

First: NNc1ccccn1 [2-Hydrazinopyridine]
Second: CC(=O)Nc1ccccc1 [Acetanilide]
The chemical recovery of the first is lower: 0.622 ± 0.11% for the first, 40.3 ± 9.3% for the second.

First: Cc1cc(C(C)(C)c2ccc(O)c(C)c2)ccc1O [Bisphenol-C]
Second: Cc1cc(O)cc(C)c1[S+](C)[O-] (configuration not stated) [Methiocarb-sulfoxide-phenol]
The chemical recovery of the first is lower: 52.7 ± 2.9% for the first, 71.6 ± 6.9% for the second.

`Cc1nccn1CC1CCc2c(c3ccccc3n2C)C1=O` (configuration not stated) [Ondansetron] and `Cc1ccccc1NC(=N)Nc1ccccc1C` [1,3-Di-o-tolylguanidine] are within error of each other in chemical recovery: 15.3 ± 3.4% for the first, 20.9 ± 2.6% for the second.

First: CN(C1CCCCC1)C1CCCCC1 [N-Methyl-dicyclohexylamine]
Second: CN(C)C(=O)NC1CCCCC1 [3-Cyclohexyl-1,1-dimethylurea]
The chemical recovery of the first is lower: 0.654 ± 0.19% for the first, 28.9 ± 9.2% for the second.

`CC(Cc1ccc(C(C)(C)C(=O)O)cc1)CN1C[C@@H](C)O[C@@H](C)C1` (some centres not stated) [Fenpropimorph-acid] and `CC(C)NCC(O)COc1ccc(CC(=O)O)cc1` (configuration not stated) [Metoprolol acid] are within error of each other in chemical recovery: 41.2 ± 4.4% for the first, 41.1 ± 5% for the second.

First: N=C(Nc1ccccc1)Nc1ccccc1 [1,3-Diphenylguanidine]
Second: O=C(Nc1ccccc1)Nc1ccccc1 [1,3-Diphenylurea]
The chemical recovery of the first is lower: 22.6 ± 3% for the first, 65.9 ± 7.5% for the second.

First: OC(Cn1cncn1)(c1ccc(F)cc1)c1ccccc1F (configuration not stated) [Flutriafol]
Second: CNCC[C@H](Oc1cccc2ccccc12)c1cccs1 [Duloxetine]
The chemical recovery of the first is higher: 43.2 ± 5.4% for the first, 1.6 ± 0.45% for the second.

First: CCC(C(N)=O)(C(N)=O)c1ccccc1 [Phenylethylmalonamide]
Second: O=C(O)c1ccccc1C(=O)OCc1ccccc1 [Monobenzyl-phthalate]
The chemical recovery of the first is lower: 43.1 ± 4.2% for the first, 59.6 ± 9.9% for the second.

First: COc1cnc(OC)n2nc(NS(=O)(=O)c3c(OCC(F)F)cccc3C(F)(F)F)nc12 [Penoxsulam]
Second: COc1cc(-c2ccc(N)c(OC)c2)ccc1N [o-Dianisidine]
The chemical recovery of the first is higher: 53.1 ± 7.8% for the first, 0.374 ± 0.16% for the second.

Compared with `COc1c(Cl)ccc(Cl)c1C(=O)O` [Dicamba], `CN(C)C(=O)Nc1ccc(Cl)cc1` [Monuron] is higher in chemical recovery: 42.3 ± 2.6% for the first, 60.2 ± 3.6% for the second.

First: CC(Cl)CN(C)C (configuration not stated) [2-Chloropropyldimethylamine]
Second: CCCCCCCCCC(=O)N(C)C [N,N-Dimethyldecan-1-amide]
The chemical recovery of the first is lower: 0.712 ± 0.094% for the first, 27.7 ± 10% for the second.

Going from `CNC(=O)Oc1cc(C)c(SC)c(C)c1` [Methiocarb] to `Cn1cnc2c1c(=O)n(CCCC(=O)O)c(=O)n2C` [1-(3-carboxypropyl)-3,7-dimethylxanthine], the chemical recovery rises from 0.0787 ± 0.035% to 72.3 ± 13%.

Compared with `O=C1C=C(N(Cc2ccc(Cl)nc2)CC(F)F)CO1` [Flupyradifurone], `Oc1ccc(Cc2ccc(O)cc2)cc1` [Bisphenol-F] is higher in chemical recovery: 43.9 ± 3.3% for the first, 70.2 ± 3.4% for the second.

`O=P(O)(O)C(F)(F)C(F)(F)C(F)(F)C(F)(F)C(F)(F)C(F)(F)F` [Perfluorohexylphosphonic-acid] and `CCCCOP(=O)(O)OCCCC` [Di-n-butyl-phosphate] are within error of each other in chemical recovery: 37.5 ± 6% for the first, 40.8 ± 6.1% for the second.

First: CC1CCN(CCCC(=O)c2ccc(F)cc2)CC1 [Melperon]
Second: COCCc1ccc(OCC(O)CNC(C)C)cc1 (configuration not stated) [Metoprolol]
The chemical recovery of the first is lower: 0.434 ± 0.15% for the first, 21.9 ± 2.5% for the second.

`CCCCCCCC[N+](C)(C)C` [Trimethyloctylammonium] showed a chemical recovery of 38.7 ± 3.8%.

Same assay, conditions: pooled human plasma; extraction method: SPE only (HLB 96-well)

Compared with `CNC(=O)c1cc(Cl)cc(C)c1NC(=O)c1cc(Br)nn1-c1ncccc1Cl` [Chlorantraniliprole], `CC(=O)Nc1c(C)n(C)n(-c2ccccc2)c1=O` [N-Acetyl-4-aminoantipyrine] is lower in chemical recovery: 49.5 ± 2.3% for the first, 43.1 ± 2.7% for the second.

Compared with `NNc1ccccn1` [2-Hydrazinopyridine], `CC(=O)Nc1ccccc1` [Acetanilide] is higher in chemical recovery: 9.35 ± 5% for the first, 42 ± 2.4% for the second.

Compared with `Cc1cc(C(C)(C)c2ccc(O)c(C)c2)ccc1O` [Bisphenol-C], `CC(C)(C)CC(C)(C)c1ccc(O)cc1` [4-Tert-Octylphenol] is lower in chemical recovery: 34.5 ± 4.8% for the first, 25.4 ± 2% for the second.

`CC(C)(C)CC(C)(C)c1cc(-n2nc3ccccc3n2)c(O)c(C(C)(C)c2ccccc2)c1` [UV-928] and `CC(C)(c1ccccc1)c1cc(-n2nc3ccccc3n2)c(O)c(C(C)(C)c2ccccc2)c1` [UV-234] are within error of each other in chemical recovery: 0.72 ± 0.29% for the first, 0.688 ± 0.28% for the second.

First: Cn1sc(Cl)cc1=O [Methylchloroisothiazolinone]
Second: COc1c(Cl)ccc(Cl)c1C(=O)O [Dicamba]
The chemical recovery of the first is lower: 0.906 ± 0.2% for the first, 37.9 ± 3.7% for the second.

`Cc1nccn1CC1CCc2c(c3ccccc3n2C)C1=O` (configuration not stated) [Ondansetron] and `Cc1ccccc1NC(=N)Nc1ccccc1C` [1,3-Di-o-tolylguanidine] are within error of each other in chemical recovery: 32.6 ± 2% for the first, 34.2 ± 2.8% for the second.

Compared with `CN(C1CCCCC1)C1CCCCC1` [N-Methyl-dicyclohexylamine], `CN(C)C(=O)NC1CCCCC1` [3-Cyclohexyl-1,1-dimethylurea] is higher in chemical recovery: 30.9 ± 1.6% for the first, 35.4 ± 2.2% for the second.

First: Oc1ccc(C(c2ccccc2)(c2ccccc2)c2ccc(O)cc2)cc1 [Bisphenol-BP]
Second: c1ccc(NNc2ccccc2)cc1 [Hydrazobenzene]
The chemical recovery of the first is higher: 40.9 ± 7.5% for the first, 2.13 ± 0.29% for the second.

First: C[C@H](CCC(=O)O)[C@H]1CC[C@H]2[C@@H]3CC[C@@H]4C[C@H](O)CC[C@]4(C)[C@H]3C[C@H](O)[C@]12C [Deoxycholic-acid]
Second: C[C@@]12CCC[C@H]1[C@@H]1CC[C@H]3C[C@@H](O)CC[C@]3(C)[C@H]1CC2 [Androstanol]
The chemical recovery of the first is higher: 38.5 ± 8.1% for the first, 1.3 ± 0.4% for the second.

First: CC(=O)CCC1C(C)=CCCC1(C)C (stereo not drawn) [Dihydro-alpha-ionone]
Second: CC(Cc1ccc(C(C)(C)C(=O)O)cc1)CN1C[C@@H](C)O[C@@H](C)C1 (some centres not stated) [Fenpropimorph-acid]
The chemical recovery of the first is lower: 3.54 ± 6.1% for the first, 42.9 ± 4.1% for the second.

Compared with `Nc1cccc2cc(S(=O)(=O)O)ccc12` [5-Aminonaphthalene-2-sulfonic acid], `O=C(O)c1ccccc1C(=O)OCc1ccccc1` [Monobenzyl-phthalate] is higher in chemical recovery: 10.5 ± 3.9% for the first, 57.7 ± 4.3% for the second.

Going from `N=C(Nc1ccccc1)Nc1ccccc1` [1,3-Diphenylguanidine] to `O=C(Nc1ccccc1)Nc1ccccc1` [1,3-Diphenylurea], the chemical recovery rises from 34.5 ± 2.5% to 46.9 ± 3.4%.

Compared with `Cc1cc(O)cc(C)c1[S+](C)[O-]` (configuration not stated) [Methiocarb-sulfoxide-phenol], `CNC(=O)Oc1cc(C)c(SC)c(C)c1` [Methiocarb] is lower in chemical recovery: 47.4 ± 5.3% for the first, 32.8 ± 0.78% for the second.

Going from `OC(Cn1cncn1)(c1ccc(F)cc1)c1ccccc1F` (configuration not stated) [Flutriafol] to `CNCC[C@H](Oc1cccc2ccccc12)c1cccs1` [Duloxetine], the chemical recovery falls from 41.9 ± 3.3% to 34.8 ± 2.4%.

`CCC(C(N)=O)(C(N)=O)c1ccccc1` [Phenylethylmalonamide] and `CCCN(CCC)C(=O)SCc1ccccc1` [Prosulfocarb] are within error of each other in chemical recovery: 37.2 ± 2.4% for the first, 33.6 ± 4.5% for the second.

First: O=C(NC(=O)c1c(F)cccc1F)Nc1ccc(Oc2ccc(C(F)(F)F)cc2Cl)cc1F [Flufenoxuron]
Second: COc1cnc(OC)n2nc(NS(=O)(=O)c3c(OCC(F)F)cccc3C(F)(F)F)nc12 [Penoxsulam]
The chemical recovery of the first is lower: 25.7 ± 5.2% for the first, 42.2 ± 4.3% for the second.

Going from `Oc1cccc2n[nH]nc12` [4-Hydroxybenzotriazole] to `CN(C)C(=O)Nc1ccc(Cl)cc1` [Monuron], the chemical recovery rises from 32.8 ± 2.4% to 49.6 ± 3.1%.

First: CCOP(=S)(OCC)SCSC(C)(C)C [Terbufos]
Second: CCCCC(CC)COP(=O)(OCC(CC)CCCC)OCC(CC)CCCC (configuration not stated) [Tris(2-ethylhexl)phosphate]
The chemical recovery of the first is higher: 14.7 ± 4.8% for the first, 6.76 ± 2.9% for the second.

Compared with `CC(Cl)CN(C)C` (configuration not stated) [2-Chloropropyldimethylamine], `CC(C)NCC(O)COc1ccc(CC(=O)O)cc1` (configuration not stated) [Metoprolol acid] is higher in chemical recovery: 1.1 ± 0.73% for the first, 33.5 ± 2.9% for the second.

`O=C1C=C(N(Cc2ccc(Cl)nc2)CC(F)F)CO1` [Flupyradifurone] and `CC1CCN(CCCC(=O)c2ccc(F)cc2)CC1` [Melperon] are within error of each other in chemical recovery: 39.3 ± 3.1% for the first, 35.9 ± 3% for the second.

Compared with `O=P(O)(O)C(F)(F)C(F)(F)C(F)(F)C(F)(F)C(F)(F)C(F)(F)F` [Perfluorohexylphosphonic-acid], `CC(=O)c1cc(C(C)(C)C)c(O)c(C(C)(C)C)c1` [3,5-Di-tert-butyl-4'-hydroxyacetophenone] is lower in chemical recovery: 31.2 ± 4.6% for the first, 20.1 ± 4.9% for the second.

Going from `O=S1OC[C@@H]2[C@H](CO1)[C@@]1(Cl)C(Cl)=C(Cl)[C@]2(Cl)C1(Cl)Cl` (stereo partly drawn) [alpha-Endosulfan] to `Cn1cnc2c1c(=O)n(CCCC(=O)O)c(=O)n2C` [1-(3-carboxypropyl)-3,7-dimethylxanthine], the chemical recovery rises from 0.649 ± 0.17% to 54.3 ± 10%.
